Measured values taken from article PMC11928584, “H105A peptide eye drops promote photoreceptor survival in murine and human models of retinal degeneration” (Communications Medicine, 2025).
Where a SMILES comes first, the peptide text is derived from it.

How the values were obtained:
Assay type in all cases: in vivo, mouse
[1] = tested on: photoreceptors of rd10 mice; assay: PSVue-550 fluorescence fundoscopy of photoreceptor cell death (PS externalization); settings: for PS externalization / photoreceptor cell death vs vehicle: daily eye drops 5 µl of 1 mg/ml from P15, PSVue-550 fundoscopy P21
Text: Fluorescence fundoscopy with a cell death probe was chosen as a simple method for monitoring photoreceptor cell death in alive animals. A fluorescent probe, bis (zinc^2+-dipicolylamine)-550, (PSVue®-550) (Molecular Targeting Technologies Inc, cat. P-1005) was reconstituted in Hanks’ Balanced Salt Solution (HBSS, Quality Biological, cat. 114-062-101) according to the manufacturer’s instructions[28],[36]. This probe is suitable for in vivo use to specifically and transiently label dying photoreceptors, such as in living rats with retinal degeneration the Royal College of Surgeons rat model, in a non-invasive and non-toxic method without the need of intraocular injection. Briefly, a stock of 1 mM solution of PSVue®-550 was stored in the dark at 4 °C and used within 14 days directly as eye drop. After 3-4 h of light onset each mouse received eye drops of 5–10 μl of 1 mM PSVue®-550 in the left eye and HBSS in the right eye as control. The eye drop volume was chosen such that the eye cavity was filled without spillage outside the eye, and it was modified depending on eye size. […] To obtain in vivo retinal images of fundi, at 24 h after the probe was administered, the mice were anesthetized, and pupils were dilated with 1% tropicamide for 5 min and kept hydrated with GenTeal. Fluorescence was imaged using a retinal imaging microscope (Micron III, Phoenix Research Labs) using an FF02- 475/50 nm excitation filter (Semrock, Inc.). We observed some variability in optic nerve (ON) fluorescence that could not be readily explained, so the optic nerve was excluded from analyses in all samples.
To determine the natural history of photoreceptor death of rd10 and rd10/Serpinf1^-/- mice, we assessed photoreceptor cell death in live mice using the fluorescent probe termed PSVue® 550 to monitor PS externalization by fluorescence fundoscopy (Supplementary Fig. 2). Given the reports about the retinas of rd10 mice starting to show histological changes at P16, and with a peak in the number of TUNEL+ nuclei in the ONL at P17-18[13], we monitored PS externalization in photoreceptors of these mice undergoing degeneration before death onset. Eye drops of 1 mM PSVue® 550 solution in HBSS were administered to left eyes and HBSS (vehicle) to their contralateral right eyes of each mouse at ages P16, P20, P22 or P24. PS externalization was determined by fluorescence fundoscopy 24 h post-administration. PSVue labeling of phosphatidylserine (PS) externalization associated with photoreceptor cell death in the rd10 retina (Supplementary Figs. 2, 3).
Fig. 2 Effect of PEDF peptide eye drops on protection against photoreceptor cell death in rd10 and rd10/Serpinf1^-/- mice. a Illustration of the experimental timeline of peptide application. Eye drops containing 5 µl of 17-mer, H105A, or R99A peptides in HBSS were administered daily to eyes of rd10 and rd10/Serpinf1^-/- mice from P15 to P20. Vehicle (HBSS) was applied in contralateral eyes. At P20, PSVue® was applied via eye drops, and fluorescence fundoscopy was conducted at P21 to assess photoreceptor cell death. RE and LE refer to the right and left eyes, respectively. b Fluorescence fundoscopy micrographs. Representative fluorescence fundoscopy images of retinas from mice treated as in Panel a with eyedrops of 1 mg/ml of each peptide. Quantification of fluorescence intensity was performed using ImageJ, with average intensity values corrected for background fluorescence from eyes that had not received PSVue or peptides. Each line represents data from one animal comparing treated and contralateral eyes, with five eyes (n = 5) per condition. Statistical significance was determined by paired t-test (****p ≤ 0.0001, and ns > 0.05). Scale bar = 0.5 mm. c Dose response of peptide eye drops. Representative fluorescence fundoscopy micrographs showing retinas treated with varying concentrations of 17-mer and H105A peptides (0.0 mg/ml to 1.0 mg/ml) in rd10 and rd10/Serpinf1^-/- mice. […]

[2] = tested on: photoreceptors of RhoP23H/+ mice; assay: ONL thickness (DAPI sections, spider plot), RhoP23H/+ mice; settings: daily eye drops 1 mg/ml P14-P19, P19, ventral retina
Experimental: After embedding in paraffin, 14 μm sections were collected. […] Cone photoreceptors were labeled with anti-Opsin Blue (Merck, cat. AB5407) and anti-Opsin Red/Green (Merck, cat. AB5405). […] For nuclear staining, 0.1 μg/ml DAPI was used. Slides were mounted with Mowiol 4–88 (Merck) and images acquired with a Zeiss Axio Imager A2 fluorescence microscope. To count TUNEL positive cells the RETINA Analysis Tool kit for ImageJ was used[37].
To generate spider plots, the ONL thickness was measured from images passing through the optic nerve (ON) acquired with light microscopy of the retina sections stained with H&E or images of retina sections stained with DAPI with a dorsal-ventral orientation. The ONL thickness in the entire retina sections was measured at 5 different positions from both sides of the ON using ImageJ[28]. Alternatively, for DAPI stained images, a customed macro implemented in ImageJ was used to select only the ONL.
Fig. 6 Effects of eye drops containing H105A peptide in the photoreceptors of Rho^P23H/+ mice. a Scheme of experimental design. Daily peptide eye drops (5 µl of 1 mg/ml peptide) were applied to mice starting at P14 until P19 when immunofluorescence of retinal cross sections was performed. […] Histograms show quantification of immunofluorescence intensity for BAX and BCL2 markers. Five retinas per group were analyzed, with two sections per retina. […]

[3] = tested on: retinal function of rd10 mice; assay: Electroretinogram (scotopic a- and b-wave), rd10 mice
Experimental: Electroretinogram (ERG) for rd10 and rd10/Serpinf1^-/- mice were dark-adapted overnight and recorded in both eyes of each animal using an Espion E2 system with ColorDome (Diagnosys LLC) with a heated surface. Briefly, pupils were dilated with 1% tropicamide (Akorn, NDC: 17478-101-12) for 10 min and mice were anesthetized with intraperitoneal injection of Zetamine™ (Ketamine hydrochloride injection, USP; VetOne, NDC 13985-584-10) at 92.5 mg/kg, and AnaSed® (xylazine injection, Akorn Pharmaceuticals, NDC 59399-110-20) at 5.5 mg/kg. Mice were placed on the heated surface and electrodes were placed in the mouth and a subdermal platinum needle electrode was placed in the back of the mouse to serve as ground. Responses were elicited with increasing light impulses with intensity from 0.0001 to 10 cd-seconds per meter squared (cd.s/m^2). Amplitudes for a-wave were measured from stimulus to the trough of the a-wave and b-wave amplitudes were measured from a-wave to b-wave trough or peak. The values from the a and b waves for both eyes were exported to Microsoft Excel to obtained amplitude values for each mouse.
Fig. 5 Effect of daily eyedrops of PEDF peptides on ERG a-wave and b-wave retinal function. a Illustration of the experimental timeline of peptide application. RE and LE refer to the right and left eyes, respectively. Representative ERG waveforms for rd10 (b) and rd10/Serpinf1^-/- (c) mice at P21 in response to a light flash (1 cd.s/m²). Amplitude (y-axis) is plotted against time in milliseconds (ms, x-axis). Treatments are indicated to the right of each plot and are color coded, with control wild type C57BL/6 J mice without peptide treatment shown in blue. A-wave and b-wave are indicated by arrows. Photoreceptor a-wave amplitudes. Averages of photoreceptor a-wave amplitudes for rd10 (d) and rd10/Serpinf1^-/- (e) mice as a function of light intensity (cd/s.m², x-axis). Responses of animals treated with 17-mer are shown in green, H105A in black, and vehicle (HBSS) in red. Wildtype responses are shown in blue. Bipolar cell b-wave amplitudes. Averages of bipolar cell b-wave amplitudes for rd10 (f) and rd10/Serpinf1^-/- (g) mice as a function of light intensity (cd/s.m², x-axis), with treatments as indicated in panels. The number of mice evaluated for the data shown in Panels d-g was five (n = 5) for each rd10, rd10/Serpinf1^-/- and wild type. Each data point represents the average ± SD of each genotype, analyzed by ANOVA with Dunnett’s multiple comparisons. Statistical significance between H105A and vehicle is indicated by ##p ≤ 0.01, ###p ≤ 0.001, ####p ≤ 0.0001, and between H105A and 17-mer by **p ≤ 0.01, ***p ≤ 0.001, ****p ≤ 0.0001.

[4] = eye drops every other day P15-P23, ERG at P25

SMILES | PS externalization / photoreceptor cell death vs vehicle [1] | ONL thickness [2] | eye drop concentration effective in restraining PS externalization (as low as) ([1]; titration 0.0-1.0 mg/ml, daily eye drops) [mg/mL] | ERG response to low intensity light ([3]; daily eye drops 5 µl of 1 mg/ml P15-P24, ERG at P25) | ERG a-wave [3, 4] | ERG b-wave [3, 4] | function of rd10 photoreceptors ([3]; eye drops every other day, endpoint extended to P25)
CC[C@H](C)[C@H](NC(=O)[C@H](CC(C)C)NC(=O)[C@H](CC(=O)O)NC(=O)[C@H](Cc1ccc(O)cc1)NC(=O)[C@H](Cc1ccc(O)cc1)NC(=O)[C@H](CC(C)C)NC(=O)[C@H](C)NC(=O)[C@H](CCCNC(=N)N)NC(=O)[C@H](Cc1c[nH]cn1)NC(=O)[C@@H](NC(=O)[C@@H](NC(=O)[C@H](CO)NC(=O)[C@H](CCC(=O)O)NC(=O)[C@@H](NC(=O)[C@H](C)NC(=O)[C@@H](N)CCC(N)=O)[C@@H](C)O)[C@@H](C)CC)[C@@H](C)CC)C(=O)N[C@@H](CO)C(=O)O [R99A] (H-QATESIIHRALYYDLIS-OH) | no major efficacy |  |  |  |  |  | 
CC[C@H](C)[C@H](NC(=O)[C@H](CC(C)C)NC(=O)[C@H](CC(=O)O)NC(=O)[C@H](Cc1ccc(O)cc1)NC(=O)[C@H](Cc1ccc(O)cc1)NC(=O)[C@H](CC(C)C)NC(=O)[C@H](C)NC(=O)[C@H](CCCNC(=N)N)NC(=O)[C@H](C)NC(=O)[C@@H](NC(=O)[C@@H](NC(=O)[C@H](CO)NC(=O)[C@H](CCC(=O)O)NC(=O)[C@@H](NC(=O)[C@H](CCCNC(=N)N)NC(=O)[C@@H](N)CCC(N)=O)[C@@H](C)O)[C@@H](C)CC)[C@@H](C)CC)C(=O)N[C@@H](CO)C(=O)O [H105A] (H-QRTESIIARALYYDLIS-OH) | diminished fundi fluorescence | preservation of ONL thickness | 0.5 | improved rod photoreceptor function | an improvement in a-wave of ERG | no significant effect | improved the function of rd10 photoreceptors
